pKi: −log10 of the molar value.
What was measured:
[1] = species: Cavia porcellus; experiment: Tested for naloxone pA2 activity in guinea pig ileum; type: functional
[2] = molecular target: Kappa-type opioid receptor (Cavia porcellus, UniProt P41144); experiment: Tested for inhibitory effect on binding of [3H]bremazocine to opioid receptor kappa in guinea pig cerebellum membranes; type: cell membranes, Membrane
[3] = molecular target: Opioid receptors; mu/kappa/delta (Homo sapiens, UniProt P41145+P41143+P35372); experiment: Tested for opioid receptor agonistic activity in guinea pig ileum; type: functional, tissue-based, Cavia porcellus; details: target entry is the homologue from another species
[4] = molecular target: Mu-type opioid receptor (Cavia porcellus, UniProt P97266); experiment: Tested for inhibitory effect on binding of [3H]DAMGO to opioid receptor mu in guinea pig cerebellum membranes; type: cell membranes, Membrane
Mu-type opioid receptor, sequence (P97266 whole entry): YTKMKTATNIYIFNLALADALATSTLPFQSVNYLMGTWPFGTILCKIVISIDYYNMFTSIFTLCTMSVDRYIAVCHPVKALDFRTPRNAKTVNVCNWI

Kappa-type opioid receptor, sequence (P41144 whole entry): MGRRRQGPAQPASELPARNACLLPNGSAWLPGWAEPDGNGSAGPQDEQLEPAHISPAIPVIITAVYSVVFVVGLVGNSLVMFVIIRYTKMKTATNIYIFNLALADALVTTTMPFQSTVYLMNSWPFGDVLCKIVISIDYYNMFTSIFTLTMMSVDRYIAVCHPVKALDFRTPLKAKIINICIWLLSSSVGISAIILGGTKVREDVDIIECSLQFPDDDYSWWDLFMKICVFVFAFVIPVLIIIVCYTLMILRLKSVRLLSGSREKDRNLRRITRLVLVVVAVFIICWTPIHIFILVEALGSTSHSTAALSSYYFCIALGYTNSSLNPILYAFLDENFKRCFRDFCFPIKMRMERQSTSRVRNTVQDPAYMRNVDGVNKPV

Compound | Activity [1] | pKi [2] | IC50 [3] | pKi [4]
C=CCN[C@@H](Cc1ccc(O)cc1)C(=O)NCC(=O)NCC(=O)N[C@@H](Cc1ccccc1)C(=O)N[C@@H](CC(C)C)C(=O)N[C@@H](CCCN=C(N)N)C(=O)N[C@@H](CCCN=C(N)N)C(=O)N[C@H](C(=O)N[C@@H](CCCN=C(N)N)C(=O)N1CCC[C@@H]1C(=O)N[C@@H](CCCCN)C(=O)O)[C@@H](C)CC | 7.6 | – | – | –
CC[C@H](C)[C@H](NC(=O)[C@H](CCCN=C(N)N)NC(=O)[C@H](CCCN=C(N)N)NC(=O)[C@H](CC(C)C)NC(=O)[C@H](Cc1ccccc1)NC(=O)CNC(=O)CNC(=O)[C@@H](N)Cc1ccc(O)cc1)C(=O)N[C@@H](CCCN=C(N)N)C(=O)N1CCC[C@@H]1C(=O)N[C@@H](CCCCN)C(=O)O | 7.2 | – | – | –
C=CCN(CC=C)[C@@H](Cc1ccc(O)cc1)C(=O)NCC(=O)NCC(=O)N[C@@H](Cc1ccccc1)C(=O)N[C@@H](CC(C)C)C(=O)N[C@@H](CCCN=C(N)N)C(=O)N[C@@H](CCCN=C(N)N)C(=O)N[C@H](C(=O)N[C@@H](CCCN=C(N)N)C(=O)N1CCC[C@@H]1C(=O)N[C@@H](CCCCN)C(=O)O)[C@@H](C)CC | – | 8.44 | 687 nM | 7.50
CC[C@H](C)[C@H](NC(=O)[C@H](CCCN=C(N)N)NC(=O)[C@H](CCCN=C(N)N)NC(=O)[C@H](CC(C)C)NC(=O)[C@H](Cc1ccccc1)NC(=O)CNC(=O)CNC(=O)[C@H](Cc1ccc(O)cc1)NCC1CC1)C(=O)N[C@@H](CCCN=C(N)N)C(=O)N1CCC[C@@H]1C(=O)N[C@@H](CCCCN)C(=O)O | 7.3 | 10.70 | 2.16 nM | 8.02
CN1CC[C@]23c4c5ccc(O)c4O[C@H]2[C@@H](O)C=C[C@H]3[C@H]1C5 [MORPHINE] | 8.2 | – | – | –
